Experimental data from PMC12551991, “Inheritance and enzymatic basis of anthocyanin malonylation in Fragaria × ananassa” (The Plant Journal, 2025).

Assays:
Test in all cases: LC-MS malonyltransferase assay, non-linear Michaelis-Menten fit
Type in all cases: biochemical, Fragaria × ananassa
Details in all cases: potassium phosphate pH 7.0, 30°C, 30 min
MAT4C1/S1 (FaMAT4C1) = system: T1, MAT4C1/S1 (FaMAT4C1)
T1 construct: gene MAT4; no tag removal described
Description: LC-MS malonyltransferase assay, non-linear Michaelis-Menten fit on MAT4C1/S1 (FaMAT4C1)

MAT1S (FaMAT1S) = system: T2, MAT1S (FaMAT1S)
T2 construct: gene MAT1; no tag removal described
Description: LC-MS malonyltransferase assay, non-linear Michaelis-Menten fit on MAT1S (FaMAT1S)

MAT1C (FaMAT1C) = system: T3, MAT1C (FaMAT1C)
T3 construct: gene MAT1; no tag removal described
Description: LC-MS malonyltransferase assay, non-linear Michaelis-Menten fit on MAT1C (FaMAT1C)

MAT2C1/S1 (MAT2S1) = system: T4, MAT2C1/S1 (MAT2S1)
T4 construct: gene MAT2; no tag removal described
Description: LC-MS malonyltransferase assay, non-linear Michaelis-Menten fit on MAT2C1/S1 (MAT2S1)

MAT2C2/S2 (MAT2S2) = system: T5, MAT2C2/S2 (MAT2S2)
T5 construct: gene MAT2; no tag removal described
Description: LC-MS malonyltransferase assay, non-linear Michaelis-Menten fit on MAT2C2/S2 (MAT2S2)

[1] = acceptor, co-substrate malonyl-CoA
[2] = donor, co-substrate quercetin-3-glucoside

Compound	Km (MAT4C1/S1 (FaMAT4C1); [1]) [µM]	Km (MAT1S (FaMAT1S); [1]) [µM]	Km (MAT1C (FaMAT1C); [1]) [µM]	Km (MAT2C1/S1 (MAT2S1); [1]) [µM]	Km (MAT4C1/S1 (FaMAT4C1); [2]) [µM]	Km (MAT1S (FaMAT1S); [2]) [µM]	Km (MAT1C (FaMAT1C); [2]) [µM]	Km (MAT2C2/S2 (MAT2S2); [2]) [µM]	Km (MAT2C1/S1 (MAT2S1); [2]) [µM]	Km (MAT2C2/S2 (MAT2S2); [1]) [µM]
O=c1c(O[C@@H]2O[C@H](CO)[C@@H](O)[C@H](O)[C@H]2O)c(-c2ccc(O)cc2)oc2cc(O)cc(O)c12 [Kaempferol‐3‐glucoside]	250 ± 80	300 ± 60	150 ± 40	790 ± 300						
CC(C)(COP(=O)(O)OP(=O)(O)OC[C@H]1O[C@@H](n2cnc3c(N)ncnc32)[C@H](O)[C@@H]1OP(=O)(O)O)[C@@H](O)C(=O)NCCC(=O)NCCSC(=O)CC(=O)O [Malonyl‐CoA]					410 ± 200	450 ± 200	700 ± 200	24 ± 20	22 ± 10	
OC[C@H]1O[C@@H](Oc2cc3c(O)cc(O)cc3[o+]c2-c2ccc(O)cc2)[C@H](O)[C@@H](O)[C@@H]1O [Pelargonidin‐3‐glucoside]	390 ± 200	400 ± 200	270 ± 100							

Results, then the molecule that gave them:

Km (MAT4C1/S1 (FaMAT4C1); [1]) [µM]	Km (MAT1S (FaMAT1S); [1]) [µM]	Km (MAT1C (FaMAT1C); [1]) [µM]	Km (MAT2C1/S1 (MAT2S1); [1]) [µM]	Km (MAT4C1/S1 (FaMAT4C1); [2]) [µM]	Km (MAT1S (FaMAT1S); [2]) [µM]	Km (MAT1C (FaMAT1C); [2]) [µM]	Km (MAT2C2/S2 (MAT2S2); [2]) [µM]	Km (MAT2C1/S1 (MAT2S1); [2]) [µM]	Km (MAT2C2/S2 (MAT2S2); [1]) [µM]	Compound
63 ± 30	11 ± 3	17 ± 3								OC[C@H]1O[C@@H](Oc2cc3c(O)cc(O)cc3[o+]c2-c2ccc(O)c(O)c2)[C@H](O)[C@@H](O)[C@@H]1O [Cyanidin‐3‐glucoside]
220 ± 100	300 ± 100	310 ± 100	180 ± 50						180 ± 60	O=c1c(O[C@@H]2O[C@H](CO)[C@@H](O)[C@H](O)[C@H]2O)c(-c2ccc(O)c(O)c2)oc2cc(O)cc(O)c12 [Quercetin‐3‐glucoside]
